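Test compounds were applied to cells in 96-well plates for 48 hours at 5 doses. Abbreviation: GI50, concentration required for 50% inhibition of growth.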 The source made the active and inactive calls. Rule as the data show it: active = GI50 up to about 1.1 µM and inactive = higher.
Tests used:
Assay in all cases: NCI tumour cell line growth inhibition, 48 h
[1] = tested on: CAKI-1
[2] = tested on: COLO 205
[3] = tested on: EKVX
[4] = tested on: HCT-116
[5] = tested on: HOP-62
[6] = tested on: MCF7
[7] = tested on: MDA-MB-231
[8] = tested on: MDA-MB-435
[9] = tested on: NCI-H460
[10] = tested on: NCI-H522
[11] = tested on: OVCAR-4
[12] = tested on: OVCAR-8
[13] = tested on: SF-268
[14] = tested on: SF-539
[15] = tested on: SK-MEL-28
[16] = tested on: SN12C
[17] = tested on: SNB-19
[18] = tested on: SR
[19] = tested on: UO-31
[20] = tested on: RXF 393

Measured: GI50

CCOC(=O)C1C(c2ccc(OC)cc2)c2c(n[nH]c2O)CC1(O)OCC (stereo not drawn)
inactive: [1] > 100 µM | [2] > 100 µM | [3] > 100 µM | [4] > 100 µM | [5] > 100 µM | [6] > 100 µM | [7] > 100 µM | [8] > 100 µM | [9] > 100 µM | [10] > 100 µM | [11] > 100 µM | [12] > 100 µM | [13] > 100 µM | [14] > 100 µM | [15] > 100 µM | [16] > 100 µM | [17] > 100 µM | [18] > 100 µM | [19] > 100 µM

Cc1ccc2c(c1)C(=S)N1CSCC1c1nncn1-2 (stereo not drawn)
inactive: [1] > 100 µM | [2] > 100 µM | [3] > 100 µM | [4] > 100 µM | [5] > 100 µM | [6] > 100 µM | [7] > 100 µM | [8] > 100 µM | [9] > 100 µM | [10] > 100 µM | [11] > 100 µM | [12] > 100 µM | [20] > 100 µM | [13] > 100 µM | [15] > 100 µM | [16] > 100 µM | [17] > 100 µM | [18] > 100 µM | [19] > 100 µM

CC1(C)O[C@H]2[C@@H]3N=C(c4ccccc4)O[C@@H]3C=C[C@H]2O1
inactive: [1] > 100 µM | [2] > 100 µM | [3] 59.7 µM | [4] > 100 µM | [5] > 100 µM | [6] > 100 µM | [7] > 100 µM | [8] > 100 µM | [10] 4.01 µM | [11] > 100 µM | [12] > 100 µM | [13] 17.6 µM | [14] > 100 µM | [15] > 100 µM | [16] > 100 µM | [17] > 100 µM | [18] > 100 µM | [19] > 100 µM

COC(=O)CCC1(C)C2CCC1/C(=N/O)C2 (stereo not drawn)
inactive: [1] > 100 µM | [2] > 100 µM | [3] > 100 µM | [4] > 100 µM | [5] > 100 µM | [6] > 100 µM | [7] > 100 µM | [8] > 100 µM | [10] > 100 µM | [11] > 100 µM | [12] > 100 µM | [20] > 100 µM | [13] > 100 µM | [15] > 100 µM | [16] > 100 µM | [17] > 100 µM | [18] > 100 µM | [19] > 100 µM

COC(=O)C1C(=O)CC(C)(O)C(C(=O)OC)C1c1ccc(N(C)C)cc1 (stereo not drawn)
inactive: [1] > 100 µM | [2] > 100 µM | [3] > 100 µM | [4] 8.67 µM | [5] > 100 µM | [6] > 100 µM | [7] > 100 µM | [8] > 100 µM | [9] > 100 µM | [10] > 100 µM | [11] > 100 µM | [12] > 100 µM | [20] > 100 µM | [13] > 100 µM | [15] > 100 µM | [16] > 100 µM | [17] > 100 µM | [18] > 100 µM | [19] > 100 µM

Cc1ccc(CC2(C(=O)O)Cc3ccc(C)cc3C2)cc1 (stereo not drawn)
inactive: [1] > 100 µM | [2] 84.3 µM | [3] 55.3 µM | [4] > 100 µM | [5] > 100 µM | [6] > 100 µM | [7] 89.1 µM | [8] > 100 µM | [9] > 100 µM | [10] > 100 µM | [11] > 100 µM | [12] > 100 µM | [13] > 100 µM | [14] > 100 µM | [15] > 100 µM | [16] > 100 µM | [17] > 100 µM | [18] > 100 µM | [19] > 100 µM

O=C(O)CCNc1[nH]cnc2ncnc1-2
inactive: [1] > 100 µM | [2] > 100 µM | [3] > 100 µM | [4] > 100 µM | [5] > 100 µM | [6] > 100 µM | [7] > 100 µM | [8] > 100 µM | [9] > 100 µM | [10] > 100 µM | [11] > 100 µM | [12] > 100 µM | [20] > 100 µM | [13] > 100 µM | [15] > 100 µM | [16] > 100 µM | [17] > 100 µM | [18] > 100 µM | [19] > 100 µM

COc1cccc(-c2nc(O)c3ccccc3n2)c1OC
inactive: [1] > 100 µM | [2] > 100 µM | [3] > 100 µM | [4] > 100 µM | [5] > 100 µM | [6] > 100 µM | [7] 74.3 µM | [8] > 100 µM | [9] > 100 µM | [11] > 100 µM | [12] > 100 µM | [20] > 100 µM | [13] > 100 µM | [16] > 100 µM | [17] > 100 µM | [18] > 100 µM | [19] > 100 µM
